Test results published in patent EP2719375A1, “Cannabinoids for the treatment of cancers dependent on hedgehog mechanisms” (Max-Planck-Gesellschaft zur Förderung der Wissenschaften …, priority 2012, dated 2014).
Entries after “also recorded” stand apart in the source; their conditions may differ. Like-named read-outs stand apart in the source and are kept apart here.

How the values were obtained:
[1] = tested on: Shh signaling in ShhLIGHT2 cells; assay: ShhLIGHT2 signaling assay (Gli-responsive Firefly:Renilla luciferase ratio); type: cell-based, mammalian; conditions: for effect on signaling in ShhLIGHT2 cells (pure compounds, column fractions): cells stimulated with non-lipoprotein-associated Shh; for inhibits Shh signaling: at 30µM
Method: HeLa cells were passaged in DMEM with 10% fetal bovine serum (FBS, Gibco), 50 U/ml penicillin and 50µg/ml streptomycin (Gibco). To prepare non-lipoprotein-associated Shh, HeLa cells were transfected with plasmids encoding human Shh using polyethylenimine (Polysciences) in OptiMem (Invitrogen), then switched Shh-transfected HeLa cells to serum-free media (DMEM +1% Insulin-Transferrin-Selenium mixture (ITS-X, Gibco) 4 h post transfection. After 48 h, conditioned media were centrifuged at 1000 g for 20 min and concentrated using Amicon Ultra -10K (Millipore) for use in the signaling assay. Identically treated media from nontransfected HeLa cells were used as controls.
Shh-LIGHT2 cells (Taipale et al., 2000) were maintained in DMEM + 10% FBS, 150 µg/ml zeocin (Invitrogen) and 400 µg/ml G418 (Invitrogen). 24 h prior to assay, cells were plated at […] in 96-well plates. Cells were then switched to a serum-free medium consisting of DMEM + 1% ITS-X, and supplemented with combinations of Shh and different lipids. Lipids were added in DMSO. Luciferase activity was assayed in cell lysates after 24 h, as instructed by the manufacturer (Dual Glo Luciferase Assay, Promega).

Ci155 = assay: Drosophila wing disc assay, Ci155 staining; conditions: LppRNAi wing discs, DOPC liposomes, 2 hours
Method: (§1) Imaginal discs were fixed and stained as previously described (Marois et al., 2006). Antibodies were diluted as follows: anti-Ci 2A1 1:10 (Wang and Holmgren, Development, 126(22): p. 5097-106 (1999)), anti-Smo 1:50 (Lum et al., Mol Cell, 12(5): p. 1261-74 (2003)).
(§2) All quantified immunostaining was performed on discs that were dissected, fixed, stained and imaged in parallel using the same microscope settings. To quantify Ci155 and Smo staining intensities, three apical sections 0.7 µm apart were projected using maximal intensity in ImageJ. For each image, two rectangles of 100 pixels parallel to the A/P axis by 351 pixels parallel to the D/V axis were selected and centered at the A/P boundary in ventral and dorsal compartments. Average pixel intensity was determined as a function of distance from A/P boundary using PlotProfile and plotted using Microsoft Excel. All A/P boundaries were determined according to anti-Ci155 coimmunostaining. To estimate the significance of changes in staining intensities in discs of different genotypes, we measured Smo or Ci staining intensity at the same distance from the A/P boundary in each disc and calculated p values using Excel.
(§3) The assay was performed as previously described (Khaliullina et al., Development, 136(24): p. 4111-21 (2009)). Endocannabinoids were applied in DOPC vesicles at concentrations of up to 200µM.

Smo = target: T1, Smo (Drosophila melanogaster, UniProt P91682); assay: Drosophila wing disc assay, Smo staining; conditions: for ectopic Smo accumulation / stabilization: LppRNAi wing discs, DOPC liposomes, 2 hours; for effects on Hh signaling in Drosophila: wing discs, judged from Smo and Ci155 accumulation
T1 construct: from tissue; host or cells: explanted wing imaginal discs from wild type and LppRNAi Drosophila larvae
T1 sequence (P91682 32-1036): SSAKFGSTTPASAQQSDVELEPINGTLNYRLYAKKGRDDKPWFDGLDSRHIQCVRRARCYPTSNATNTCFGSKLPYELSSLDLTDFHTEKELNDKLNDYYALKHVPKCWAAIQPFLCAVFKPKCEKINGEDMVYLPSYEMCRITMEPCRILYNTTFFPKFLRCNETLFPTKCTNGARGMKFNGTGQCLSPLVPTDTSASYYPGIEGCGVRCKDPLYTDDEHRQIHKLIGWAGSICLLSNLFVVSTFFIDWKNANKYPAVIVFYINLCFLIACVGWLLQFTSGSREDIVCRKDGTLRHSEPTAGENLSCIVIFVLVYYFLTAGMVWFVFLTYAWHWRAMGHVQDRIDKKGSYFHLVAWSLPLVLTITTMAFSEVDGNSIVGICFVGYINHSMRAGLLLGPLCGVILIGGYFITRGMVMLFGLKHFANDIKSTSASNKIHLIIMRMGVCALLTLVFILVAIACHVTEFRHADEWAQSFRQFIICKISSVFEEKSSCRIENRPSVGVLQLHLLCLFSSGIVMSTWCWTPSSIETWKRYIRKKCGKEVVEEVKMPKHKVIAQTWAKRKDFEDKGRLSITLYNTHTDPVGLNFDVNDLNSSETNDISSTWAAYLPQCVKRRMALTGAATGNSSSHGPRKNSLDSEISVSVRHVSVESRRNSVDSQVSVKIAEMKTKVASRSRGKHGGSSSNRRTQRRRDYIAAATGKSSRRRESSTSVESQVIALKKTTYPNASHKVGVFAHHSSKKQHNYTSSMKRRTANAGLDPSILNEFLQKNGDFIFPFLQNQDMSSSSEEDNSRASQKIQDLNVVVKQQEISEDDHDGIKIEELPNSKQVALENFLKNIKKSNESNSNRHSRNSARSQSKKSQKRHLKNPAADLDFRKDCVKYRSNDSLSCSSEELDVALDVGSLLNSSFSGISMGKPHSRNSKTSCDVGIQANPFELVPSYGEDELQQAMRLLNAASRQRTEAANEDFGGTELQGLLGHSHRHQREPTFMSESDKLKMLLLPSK
Method: as §1, §2, §3

[2] = Shh Light2, ShhLIGHT2 cells stimulated with Shh, serum-free medium, lipid added in DMSO, luciferase after 24 h, read-out: EC50 (inhibits Shh signaling)
[3] = Shh Light2, 24 h, read-out: EC50 (inhibits Shh signaling)

In the case of `CCCCCCCCCCCCCCCC(=O)NC(CO)C(=O)O` (centres unmarked) [N-acyl serine (16:0)], the EC50 ([1]; Shh Light2, ShhLIGHT2 cells stimulated with Shh, serum-free medium, lipid added in DMSO, read-out: EC50 (increases Shh signaling)) is reported as 500 nM, the “increases Shh signaling by” value ([1]; Shh-induced Firefly:Renilla increase normalized to 100) is reported as 40% and the “effect on signaling in ShhLIGHT2 cells (pure compounds, column fractions)” value (from here on “effect … (pure compounds, column fractions)”) [1] is reported as “stimulated signaling”. For the same compound, the “ectopic Ci155 accumulation” value (Ci155) was “no activity” and the “ectopic Smo accumulation / stabilization” value (Smo) was “no activity”.
In the case of `CCCCCCCC/C=C\CCCCCCCC(=O)NCCO` [N-acylethanolamide (18:1)], the “ectopic Ci155 accumulation” value (Ci155) is reported as “not decreased” and the “ectopic Smo accumulation / stabilization” value (Smo) is reported as “not decreased”.
`CC(C)CCC[C@@H](C)[C@H]1CC[C@H]2C3=CC=C4C[C@@H](O)CC[C@]4(C)[C@H]3CC[C@]12C` [7-dehydrocholesterol, reference compound] was tested, and the “effect … (pure compounds, column fractions)” value [1] was “inhibited signaling” and the “ectopic Smo accumulation / stabilization” value (Smo) was “neither reversed Smo accumulation”.
`CCCCC/C=C\C/C=C\C/C=C\C/C=C\CCCCOC(CO)CO` [2-glyceryl ether (20:4), 2-arachidonyl glyceryl ether] was tested, and the EC50 [1, 2] was 15000 nM, the “inhibits Shh signaling” value [1] was “almost completely” and the “ectopic Ci155 accumulation” value (Ci155) was “no activity”. For the same compound, the “ectopic Smo accumulation / stabilization” value (Smo) was “no activity” and the “effects on Hh signaling in Drosophila” value (Smo) was “complete inactivity”.
`CCCCCCCCCCCCCCCCCC(=O)NCCc1ccc(O)c(O)c1` [N-acyl dopamine (18:0)] was tested, and the EC50 [1, 3] was 5000 nM and the inhibition at 30 µM ([1]; Shh Light2, read-out: inhibits Shh signaling by) was 80%.
`C=C(C)[C@@H]1CCC(C)=C[C@H]1c1c(O)cc(CCCCC)cc1O` [cannabidiol] showed an EC50 [1, 2] of under 1000 nM.
`CCCCCCCCCCCCCCCCCC(=O)NCCO` [N-acylethanolamide (18:0)] was tested, and the “ectopic Ci155 accumulation” value (Ci155) was “not decreased” and the “ectopic Smo accumulation / stabilization” value (Smo) was “not decreased”.
Compound `CCCCCc1cc(O)c2c(c1)OC(C)(C)c1ccc(C)cc1-2` [cannabinol] has an EC50 [1, 2] of under 1000 nM.
For `CCCCCCCCCCCCCCCC(=O)NCCc1ccc(O)c(O)c1` [N-acyl dopamine (16:0)], the “ectopic Ci155 accumulation” value (Ci155) was “no activity” and the “ectopic Smo accumulation / stabilization” value (Smo) was “no activity”.
In the case of `CCCCC/C=C\C/C=C\C/C=C\C/C=C\CCCC(=O)NCCO` [N-acylethanolamide (20:4), arachidonyl ethanolamide], the “ectopic Ci155 accumulation” value (Ci155) is reported as “not decreased” and the “ectopic Smo accumulation / stabilization” value (Smo) is reported as “not decreased”.
With `C=C1CC[C@H](O)C/C1=C/C=C1\CCC[C@]2(C)[C@@H]([C@H](C)CCCC(C)C)CC[C@@H]12` [vitamin D3, reference compound] the “effect … (pure compounds, column fractions)” value [1] was “inhibited signaling” and the “ectopic Smo accumulation / stabilization” value (Smo) was “neither reversed Smo accumulation”.
`CCCCC/C=C\C/C=C\CCCCCCCC(=O)NCCO` [N-acylethanolamide (18:2), linoleylethanolamide] was tested, and the “EC50 decreased by addition of FAAH inhibitor” value [1] was over 10 fold, the “EC50 decreased by pre-incubation with lipoproteins” value [1] was over 10 fold and the EC50 [1, 3] was about 15000 nM. The EC50 ([1]; Shh Light2, in presence of PF-3845, a selective FAAH inhibitor, read-out: EC50) was 500 nM, the “inhibits Shh signaling” value [1] was “almost completely” and the “EC50 decreased by pre-incubation with lipoproteins” value ([1]; pre-incubated with lipoproteins versus added in DMSO without prior incubation) was “more than 10 fold”.
In the case of `CCCCCCCCCCCCCCCC(=O)NCCO` [N-acylethanolamide (16:0)], the “ectopic Ci155 accumulation” value (Ci155) is reported as “partially reverses Ci155 accumulation; also recorded: significantly reverses ectopic accumulation of Ci155”, the “ectopic Smo accumulation / stabilization” value (Smo) is reported as “reverses ectopic Smo stabilization; also recorded: completely reverses ectopic accumulation of Smo” and the “effects on Hh signaling in Drosophila” value (Smo) is reported as “strong negative effects”.
